Test results from patent US20240226018A1, “METHOD FOR COATING PHARMACEUTICAL SUBSTRATES” (Applied Materials, Inc., priority 2012, published 2024).

Assay: Tableting study: compression forces and crushing strength of tablets (eccentric tableting machine, Scleuninger-E apparatus)
Assay type: physicochemical
Conditions: tablets of target weight 300 mg, flat-faced 9 mm punches, die wall lubricated with 5% (w/V) magnesium stearate in acetone; upper punch force differs per material (Table 1)
Description: The material obtained from Example 1 was tableted using an instrumented eccentric tableting machine (Korsch EK-0, Erweka Apparatebau, Heusenstamm, Germany) Flat-faced 9 mm punches were used and the die wall was lubricated using 5% (w/V) magnesium stearate in acetone before each compression. The target weights of tablets were 300 mg. Compression forces during the compression process were measured and the crushing strength of each tablet was measured using Scleuninger-E apparatus (Switzerland) (Table 1).

Crushing strength: No tablet, no measurable
Compound: CC(=O)Nc1ccc(O)cc1 [Neat paracetamol, paracetamol]
